We go through 4 molecules from article PMC8251916 (Chemistry (Weinheim an Der Bergstrasse, Germany), 2021).

The test system of one experiment is L. major. The experiment can be described thus: Leishmaniacidal activity, MTT assay. It is filed as cell-based. The note with it: Leishmania major; 72 h incubation, MTT absorbance; read-out: absolute EC50 L. major. How it is done:
Doxorubicin, suramin and miltefosine were used as control compounds.[ ^6b , ^9 ] After incubation with varied concentrations of the compounds for 72 h, cell viability was measured using either an alamarBlue™ assay (for MRC5, HeLa and T. brucei) or MTT assay (for L. major). Absolute EC50 values and selectivity indexes were then calculated from dose‐response curves (Table 2 and S14).
Invitrogen). L. major promastigotes (MHOM/IL/80/Friedlin) were cultured at 28 °C, 5 % CO2 in modified RPMI-1640 medium (Thermo Fisher Scientific, Waltham, MA, USA) with 10% hiFBS. Parasites were split every other day and maintained in their experimental growth phase (below 2 million parasites per mL). […]
The results are expressed as the concentration of compound that reduces cell growth by 50 % versus untreated control cells (EC50) using GraphPad Prism 7 (GraphPad Software) to fit the data to a sigmoidal curve. Data are presented as the average of three independent measurements all conducted in triplicate conditions. […]
The leishmaniacidal activity of the compounds on promastigotes L. major (MHOM/IL/80/Friedlin) was carried out as previously described.[S14] Briefly, 4 × 10^6 / mL promastigotes were incubated for 72 h at 28 °C in 96-well plates (50 µL/well) in the presence of increasing concentration of compounds. Cell proliferation was determined using an MTT-based assay (Sigma-Aldrich). Thus, after the 72 h incubation, 10 µL of MTT (5 mg/ml) were added to each well and parasites were reincubated for 4 hrs at 28 °C. Then, 50 µL of 20 % SDS were added to each well. The plate was then incubated at 37°C for 4-16 hrs and analysed using an Infinite F200 plate reader (TECAN Austria, GmbH). The absorbance was measured […]
at a wavelength of 540 nm and the EC50 was calculated as described above. Data are presented as the average of three independent measurements, all conducted in triplicate conditions. […]

For experiment [1], the system named is F10T-K+ (hairpin duplex DNA). The experiment can be described thus: FRET melting assay, hairpin duplex DNA. It is filed as binding. The following applies: 200 nM DNA, PIPER and 3 not reliable (spectral overlap). How it is done: (§1) With the library in hand, we began our investigation into G4 stabilization by conducting a Förster resonance energy transfer (FRET) melting assay to assess DNA stabilization using the procedure outlined by De Cian et. al. ^[13] […] The sequences examined (at 200 nM) were the human telomeric G4 in potassium buffer (F21T‐K^+, mixed parallel/hybrid G4) ^[14] and sodium buffer (F21T‐Na^+, antiparallel G4), ^[15] the c‐Myc promoter G‐quadruplex (FmycT‐K^+, parallel G4), ^[16] a polymorphic G4 found in T. brucei (FEBR1T‐K^+, a mixed G4 topology), ^[6b] and a hairpin duplex DNA sequence (F10T‐K^+). Together, these sequences represent targets for therapeutic intervention to treat parasitic infections, ^[6b] or cancer. ^[1b] The topology of each sequence was confirmed independently via circular dichroism (CD, Figure S1). […]
(§2) FRET melting assays were performed to assess ligand affinity for duplex and G-quadruplex
(§3) DNA. Briefly, oligonucleotides of interest were obtained labelled at the 5’ and 3’ ends with FAM (a fluorescence donor) and TAMRA (a fluorescence quencher), respectively. In the folded state, proximity of the donor and quencher result in no observed fluorescence from FAM, since energy is transferred non-radiatively to TAMRA by FRET. As the temperature is raised and the secondary structure denatures, the fluorophores move further apart and the fluorescence signal increases. From the resulting curve, the characteristic melting temperature (Tmax, also referred to as Tm) is defined as the temperature which corresponds to the maxima of the first derivative of the normalised fluorescence signal. The change in melting temperature (ΔTm) induced by the presence of a small molecule ligand provides an indication of the ligand’s ability to stabilise the DNA structure. FRET experiments were performed according to the […]
(§4) procedure reported by De Cian and co-workers[S3] on a Stratagene MX3005P. The method consisted of holding at 25 °C for 5 min, before heating at 1 °C/min to 96 °C in 1 °C increments, […]

The subject of experiment [2] is Febr1T-K+ (T. brucei G-quadruplex). Kind of experiment: FRET melting assay, T. brucei G4. The following applies: 200 nM DNA, PIPER and 3 not reliable (spectral overlap). It is filed as binding. How it is done:
as §1, §2, §3, §4

In experiment [3] the test system is Febr1T (DNA, G4) GGGCAGGGGGTGATGGGGAGGAGCCAGGG
The experiment can be described thus: FRET melting. The note with it: 10 mM K+, 90 mM Li+; 10 mM Li cacodylate; 5 µM ligand, 200 nM DNA.

The test system of experiment [4] is F21T-Na+ (human telomeric G-quadruplex, antiparallel). The experiment can be described thus: FRET melting assay, human telomeric G4 in sodium buffer. It counts as binding. The note with it: 200 nM DNA, PIPER and 3 not reliable (spectral overlap). How it is done: as §1, §2, §3, §4
Experiment [5] has as its system F21T-K+ (human telomeric G-quadruplex, mixed parallel/hybrid). Kind of experiment: FRET melting assay, human telomeric G4 in potassium buffer. It is filed as binding. The following applies: 200 nM DNA, PIPER and 3 not reliable (spectral overlap). How it is done: as §1, §2, §3, §4
The subject of experiment [6] is FmycT-K+ (c-Myc promoter G-quadruplex, parallel). Kind of experiment: FRET melting assay, c-Myc promoter G4. It counts as binding. The following applies: 200 nM DNA, PIPER and 3 not reliable (spectral overlap). How it is done: as §1, §2, §3, §4
[7] abbreviates: 5 μM ligand, 10 mM KCl, 90 mM LiCl, 10 mM Li cacodylate.
Setting [8] is: 5 μM ligand, 100 mM NaCl, 10 mM Li cacodylate.
Where [9] appears, read: 5 μM ligand, 1 mM KCl, 99 mM LiCl, 10 mM Li cacodylate.

A word on the EC50: it is the concentration giving half of the maximal effect. As a reminder, the ΔTm is the shift of the melting midpoint relative to a reference. As to `CN1CCN(CCCN2C(=O)c3ccc4c5c(ccc(c35)C2=O)C(=O)N(CCCN2CCN(C)CC2)C4=O)CC1` [Compound 1], the EC50 in the experiment on L. major was found to be 0.47 ± 0.07 µM. Besides, the entries for the “ΔTm F10T-K+” value in experiment [1] (1 µM ligand), in experiment [1] (setting [7]) and in experiment [1] (10 µM ligand) were 0 ± 1 °C, 1±1 °C and 3 ± 1 °C, respectively. Besides, the “ΔTm Febr1T-K+” value in experiment [2] (1 µM ligand) worked out at 7 ± 3 °C; in experiment [2] (setting [7]) it was 9±1 °C; in experiment [2] (10 µM ligand) it was 11 ± 3 °C. Besides, the ΔTm in experiment [3] was determined as 9±1 °C.
On to `CN1CCN(CCCN2C(=O)c3ccc4c5ccc6c7c(ccc(c8ccc(c3c48)C2=O)c75)C(=O)N(CCCN2CCN(C)CC2)C6=O)CC1` [Compound 3], for which the “ΔTm F21T-Na+” value was 18 ± 2 °C in experiment [4] (1 µM ligand), 35±4 °C in experiment [4] (setting [8]) and more than 40 °C in experiment [4] (10 µM ligand). In the experiment on L. major, the EC50 was more than 100 µM. Further, the entries for the “ΔTm F21T-K+” value in experiment [5] (1 µM ligand), in experiment [5] (setting [7]) and in experiment [5] (10 µM ligand) were 10 ± 1 °C, 34±1 °C and 33 ± 1 °C, respectively. Besides, the results for the “ΔTm F10T-K+” value in experiment [1] (1 µM ligand), in experiment [1] (setting [7]) and in experiment [1] (10 µM ligand) were 1 ± 1 °C, 6±2 °C and 13 ± 2 °C, respectively. Besides, the “ΔTm Febr1T-K+” value was found to be 2 ± 1 °C in experiment [2] (1 µM ligand), 33±1 °C in experiment [2] (setting [7]) and 39 ± 1 °C in experiment [2] (10 µM ligand). Besides, the “ΔTm FmycT-K+” value in experiment [6] (1 µM ligand) was 24 ± 1 °C; in experiment [6] (setting [9]) it was 37±2 °C; in experiment [6] (10 µM ligand), more than 40 °C.
On to `CN1CCN(CCCN2C(=O)c3ccc(Oc4ccc(C(C)(C)c5ccc(Oc6ccc7c(c6)C(=O)N(CCCN6CCN(C)CC6)C7=O)cc5)cc4)cc3C2=O)CC1` [Compound 9], for which the “ΔTm F21T-Na+” value in experiment [4] (setting [8]) was −4±1 °C; in experiment [4] (10 µM ligand) it was 6 ± 4 °C. The EC50 with L. major was more than 100 µM. Besides, the “ΔTm F21T-K+” value was −1±1 °C in experiment [5] (setting [7]) and 8 ± 3 °C in experiment [5] (10 µM ligand). The “ΔTm F10T-K+” value in experiment [1] (setting [7]) is 0±1 °C. Moreover, the “ΔTm Febr1T-K+” value in experiment [2] (setting [7]) was −4±1 °C; in experiment [2] (10 µM ligand) it was -3 ± 1 °C. For the same molecule, in experiment [3], the ΔTm is −4±1 °C. Besides, the “ΔTm FmycT-K+” value in experiment [6] (setting [9]) was −1±2 °C; in experiment [6] (10 µM ligand), 10 ± 3 °C.
As for `CN1CCN(CCCNC(=O)c2ccc(Oc3ccc(C(C)(C)c4ccc(Oc5ccc(C(=O)NCCCN6CCN(C)CC6)c(C(=O)NCCCN6CCN(C)CC6)c5)cc4)cc3)cc2C(=O)NCCCN2CCN(C)CC2)CC1` [Compound 11], the “ΔTm F21T-Na+” value is -4 ± 1 °C in experiment [4] (1 µM ligand), 1±1 °C in experiment [4] (setting [8]) and 9 ± 2 °C in experiment [4] (10 µM ligand). Also, the 50% effective concentration (EC50) with L. major amounted to 18 ± 1 µM. Further, the “ΔTm F21T-K+” value in experiment [5] (1 µM ligand) was -2 ± 1 °C; in experiment [5] (setting [7]) it was 7±2 °C; in experiment [5] (10 µM ligand), 9 ± 1 °C. Besides, the “ΔTm F10T-K+” value worked out at 0±1 °C in experiment [1] (setting [7]) and 1 ± 1 °C in experiment [1] (10 µM ligand). The “ΔTm Febr1T-K+” value was 1 ± 1 °C in experiment [2] (1 µM ligand), 6±1 °C in experiment [2] (setting [7]) and 13 ± 1 °C in experiment [2] (10 µM ligand). Moreover, in experiment [3], the ΔTm was determined as 6±1 °C. Also, the results for the “ΔTm FmycT-K+” value in experiment [6] (1 µM ligand), in experiment [6] (setting [9]) and in experiment [6] (10 µM ligand) were -3 ± 1 °C, 5±1 °C and 10 ± 2 °C, respectively.
